Reference: PMC9785777, “Antidiabetic Potential of Novel 1,3,5-Trisubstituted-2-Thioxoimidazloidin-4-One Analogues: Insights into α-Glucosidase, α-Amylase, and Antioxidant Activities” (Pharmaceuticals, 2022)
Several values for one entry are separate records, joined by “and”; a condition that tells them apart may be missing. Equal entries are not always repeated.

Tests used:
[1] = ROS-generation assay (H2O2 generated with DTT, HRP-phenol red, 610 nm); conditions: 50 µM compound, incubated with DTT; control 90.74±5.54
From the text: The […] metabolites and enzymes (such as NADPH oxidase, lipoxygenase, and cytochrome P450) act together to mediate the production of ROS and diminish the counteractive oxidative damage. ROS can cause damage to DNA, lipid, proteins, and nucleic acids and the destruction of cell components leading to cell death. Toward this end, we aimed to investigate whether the mode of action of this class of compounds involved the generation of ROS. ROS-producing compounds upon reaction with a reducing agent in the presence of oxygen afford superoxide O^•−2 radical and hydrogen peroxide (H2O2) which could be quantitively estimated. Thus, compounds 5a and 7a (at 50 µM concentration) were incubated with the reducing agent dithiothreitol (DTT) and the generated H2O2 was subsequently assessed by monitoring the oxidation of phenol red in the presence of horseradish peroxidase (HRP) at the absorbance of 610 nm. We first examined the validity of the assay by examining the activity of a known ROS-producing standard drug. In our study, Celecoxib was utilized as a reference pharmacological ROS-generating drug. […] Next, we evaluated the potency of compounds 5a and 7a to produce ROS at a 50 µM concentration.
According to Nasiri et al., the antioxidant activity of compounds (5a, 7a) and Celecoxib was measured by an evaluation of ROS-generation using ELISA analysis. Three different solutions were prepared for the in vitro assessment of ROS-generation: phenol red, sodium hydroxide solution, and DTT. All reagents were provided by Sigma-Aldrich. A stock solution of DTT (20 mM) was prepared by dissolving […] of DTT in 500 µL of Hank’s Balanced Salt Solution (HBSS), and the obtained solution was preserved at −20 °C. The stock solution was further diluted with HBSS to 0.8 mM for each measurement. The HRP-PR solution was prepared by dissolving 1.8 mg of horseradish peroxidase (HRP) and 3 mg of phenol red (PR) in 10 mL of HBSS. […] After incubation, 1N NaOH was applied, and the absorbance at 610 nm was measured using a plate reader spectrometer. […]

[2] = tested on: human lung fibroblast WI-38 cell line; test: MTT cytotoxicity assay against WI-38 cells; format: cell-based; conditions: MTT, 48 h
Protocol: Based on the promising dual inhibitory activity of this class of compounds, we next evaluated the cytotoxicity of compounds 5a and 7a against human lung fibroblast cell line WI-38 in order to gain insights into the toxicity of this class of compounds utilizing the MTT assay. In this regard, lung fibroblast cells were cultured and treated with compounds 5a and 7a for 48 h at different concentrations (1000, 250, 63, 16, and 4 µg/mL). After the cells were washed, they were treated with MTT solution and the absorption was assessed using an ELISA reader at 570 nm. As a pharmacological reference drug, Celecoxib, a well-known anti-inflammatory agent, was utilized.
The cytotoxicity of compounds 5a and 7a was assessed toward the human lung fibroblast WI-38 cell line (Sigma-Aldrich, St. Louis, MO, USA, product number 90020107) using MTT assay. The MTT test assay was performed in accordance with the previously stated procedure. MTT (3-(4,5-dimethylthiazol-2-yl)-2,5-diphenyl tetrazolium bromide; Sigma catalog no. M2128) was dissolved in PBS at 5 mg/mL and processed to eliminate the insoluble residues. Briefly, cells (10^5 cells/well) were treated for 48 h at 37 °C with compounds 5a and 7a at varied doses (1000, 250, 63, 16, and 4 µg/mL, DMSO stock solutions) in a 5% CO2 atmosphere. In our assessment, celecoxib, an inhibitor of cyclooxygenase 2, was employed as a standard reference drug. Following cell washing, MTT solution (180 µL/well) was applied to the cells and incubated at 37 °C for 4 h with shaking, and the absorbance was measured using an ELISA reader at 570 nm.

## COC(=O)CCN1C(=S)N(N=C(C)c2ccccc2O)C(=O)C1=Cc1ccccc1O [Compound 5a, Methyl [5-(2-hydroxybenzylidene)-4-oxo-3-(2-hydroxyphenylethylidene)amino-2-thioxoimidazolidin-1-yl] propionate]
[1]
  ROS produced (generated H2O2): 132.4 pg/mL and 132.4 ± 2.16 pg/mL
[2]
  WI-38 cytotoxicity IC50: 88.538 µg/mL

## COC(=O)CCN1C(=S)N(N=C(C)c2ccccc2O)C(=O)C1=Cc1ccccc1OC(C)=O [Compound 7a, Methyl [5-(2-acetoxybenzylidene)-4-oxo-3-(2-hydroxyphenylethylidene)amino-2-thioxoimidazolidin-1-yl] propionate]
[1]
  ROS produced (generated H2O2): 191.5 pg/mL and 191.5 ± 3.62 pg/mL
